Experimental data as given in patent US20240238380A1, “COMPOSITION FOR COMBINATION THERAPY COMPRISING GROWTH DIFFERENTIATION FACTOR-15 VARIANT AND GLUCAGON-LIKE PEPTIDE-1 RECEPTOR AGONIST” (YUHAN CORPORATION, priority 2021, published 2024).
Marks after values point to notes of the source that are not given here.

Key:
Assay type in all cases: in vivo
[1] = Anti-obesity effect alone and in combination with semaglutide or tirzepatide in DIO mice (Example 7); details: 10 nmol/kg s.c. Q3D
Text: Diet-induced obese (DIO) mice, obtained by feeding mice with high-fat diet, are characterized by obesity, hyperglycemia, and insulin resistance. Diet-induced obese mice (Taconic, USA) resulting from feeding C57BL/6N mice with high-fat food (60 kcal % fat, Research Diets, Cat #D12492, USA) for 8 weeks were purchased from Raon Bio (Animal Inc., Republic of Korea). The diet-induced obese mice were additionally fed with 60% high-fat food for 5 weeks after arrival, and then used in the present test. On the day before drug treatment, the mice were grouped based on the average body weight of individual mice (n=6 per group), after which 0.1 and 1 nmol/kg of FM9-6+Fc_hole alone, 10 nmol/kg of semaglutide (long-acting GLP-1 derivative, SEQ ID NO: 114) and 10 nmol/kg of tirzepatide (long-acting GLP-1/GIP derivative, SEQ ID NO: 117) alone as control drugs, FM9-6+Fc_hole and semaglutide at doses of 0.1+10 and 1+10 nmol/kg in combination, and FM9-6+Fc_hole and tirzepatide at doses of 1+10 nmol/kg in combination were subcutaneously administered thereto every 3 days (Q3D) for a total of 4 weeks. The semaglutide that was used in the test was Ozempic® (semaglutide) from Novo NorDisk, and the tirzepatide that was used was a material synthesized by MedChemExpress (HY-P1731B, USA). Here, DPBS (Dulbecco's phosphate-buffered saline, Gibco, USA) was administered for vehicle treatment, and, during the experimental period (26 days), body weight was measured every day and food intake was measured every 3 days.

[2] = Anti-obesity and metabolic parameter effects alone and in combination with large dose of semaglutide in ob/ob mice (Example 6); details: 30 nmol/kg s.c. Q3D
Text: 5-week-old male ob/ob mice (Jackson Laboratory, USA) were purchased from Raon Bio (Animal Inc., Republic of Korea). The ob/ob mice were acclimatized with normal chow or normal chow diet (Teklad Certified Irradiated Global 18% Protein Rodent Diet, 2918C, Harlan Co., USA) for 5 weeks, and drug treatment was started at 10 weeks of age. On the day before drug treatment, the mice were grouped based on the body weight of individual mice and random blood glucose levels determined by sampling at the tail vein (n=6 per group). Thereafter, 1 nmol/kg of FM9-6+Fc_hole alone, 30 nmol/kg of semaglutide alone, and FM9-6+Fc_hole and semaglutide in combination (1+30 nmol/kg) were subcutaneously administered thereto a total of 9 times every 3 days (Q3D), and body weight, food intake, and non-fasting blood glucose were measured every day or every 3 days during the experimental period (24 days). Here, DPBS (Dulbecco's phosphate-buffered saline, Gibco, USA) was administered for vehicle treatment.

[3] = Anti-obesity effect alone and in combination with semaglutide in diet-induced obese (DIO) mice (Example 4); details: for Change in body weight (%) vs. day 0, Maximum efficacy: 8 weeks
Text: Diet-induced obese (DIO) mice, obtained by feeding mice with high-fat food, are characterized by obesity, hyperglycemia, and insulin resistance. Diet-induced obese mice (Taconic, USA) resulting from feeding C57BL/6N mice with high-fat food (60 kcal % fat, Research Diets, Cat #D12492, USA) for 8 weeks were purchased from Raon Bio (Animal Inc., Republic of Korea). The diet-induced obese mice were additionally fed with 60% high-fat food for 5 weeks after arrival, and then used in the present test. On the day before drug treatment, the mice were grouped based on the average body weight of individual mice (n=6 per group), after which 10 and 30 nmol/kg of FM9-6+Fc_hole alone, 10 and 30 nmol/kg of semaglutide (long-acting GLP-1 derivative, SEQ ID NO: 114) alone as a control drug, and FM9-6+Fc_hole and semaglutide were administered subcutaneously every 2 days (Q2D) for a total of 8 weeks in a combination of 10+10 and 30+30 nmol/kg. The semaglutide that was used in the test was Ozempic® (semaglutide) from Novo NorDisk. Here, for vehicle treatment, DPBS (Dulbecco's phosphate-buffered saline, Gibco, USA) was subcutaneously administered every 2 days (Q2D). Body weight was measured every 2 days from the first day of drug treatment to day 54, and the results thereof are shown in Table 4 below.

[4] = Anti-obesity effect by repeated administration alone and in combination with semaglutide in ob/ob mice (Example 5)
Text: The ob/ob mouse has a mutation in the leptin gene resulting in leptin deficiency, and are characterized by hyperglycemia, insulin resistance, overeating, and obesity. 5-week-old male ob/ob mice (Jackson Laboratory, USA) were purchased from Raon Bio (Animal Inc., Republic of Korea). The ob/ob mice were acclimatized with normal food (Teklad Certified Irradiated Global 18% Protein Rodent Diet, 2918C, Harlan Co., USA) for 4 weeks, and drug treatment was started at 9 weeks of age. On the day before drug treatment, the mice were grouped based on the body weight of individual mice and random blood glucose levels determined by sampling at the tail vein (n=6 per group). Thereafter, 1 and 10 nmol/kg of FM9-6+Fc_hole alone, 10 and 30 nmol/kg of semaglutide alone, and FM9-6+Fc_hole and semaglutide at doses of 1+10 and 10+10 nmol/kg in combination were subcutaneously administered thereto a total of 10 times every 3 days (Q3D), and body weight and food intake were measured every day or every 3 days during the experimental period (29 days). Here, DPBS (Dulbecco's phosphate-buffered saline, Gibco, USA) was administered for vehicle treatment.

[5] = Inhibitory effect on gastric emptying (acetaminophen exposure) in normal rats (Example 8); details: rats; for gastric emptying (in words): vs. negative control
Description: Therefore, this example was performed to investigate the inhibitory effect on gastric emptying when the novel long-acting GDF15 fusion protein was administered at the doses equal to the effective dose, higher than the maximum effective dose, or in combination with a GLP-1 receptor agonist to rats. 6-week-old male SD rats (Orient Bio, Republic of Korea) were purchased from Hallym Lab. Animal Inc., Republic of Korea. Animals were acclimated for 7 days. On the day of drug administration, the rats were grouped based on the average body weight of individual rats (n=5 per group) and fasted for at least 6 hours before oral administration of acetaminophen. Then, 0.1, 1, and 10 nmol/kg of FM9-6+Fc_hole, 10 nmol/kg of semaglutide (long-acting GLP-1 derivative, SEQ ID NO: 114), and combination of FM9-6+Fc_hole and semaglutide (1+10 nmol/kg) were subcutaneously administered. The semaglutide was Ozempic® (semaglutide) from Novo NorDisk. As a negative control drug, D-PBS (normal vehicle) was subcutaneously administered, and as a positive control drug, 30 mg/kg of loperamide was orally administered 45 minutes before acetaminophen administration. On 3, 24 and 72 hours after a single dose of the test articles, acetaminophen was orally administered at 100 mg/kg to rats, and blood samples were collected before and at 30, 60, 90, 120 and 150 minutes after acetaminophen administration. The plasma concentration of acetaminophen was analyzed, and the pharmacokinetic profiles and the systemic exposures of acetaminophen were compared to evaluate the inhibitory effect on gastric emptying among the groups.

semaglutide [reference compound]
Change in body weight (%) vs. day 0, Maximum efficacy ([1]; 4 weeks): −18.95 (On Day 19)**** %
Change in body weight (%) vs. day 0, Efficacy on Day 26 ([1]; Day 26): −17.69**** %
Change in body weight (%) vs. ob/ob control, Efficacy on Day 24 [2]: −10.08**** %
Mean of random blood glucose levels (mg/dL), Efficacy on Day 24 [2]: 155.7**** mg/dL
Change in body weight (%) vs. day 0, Maximum efficacy ([3]; 10 nmol/kg s.c. Q2D): −26.71 (On Day 30)**** %
Change in body weight (%) vs. day 0, Efficacy on Day 54 ([3]; 10 nmol/kg s.c. Q2D): −17.34**** %
Change in body weight (%) vs. day 0, Maximum efficacy ([3]; 30 nmol/kg s.c. Q2D): −28.13 (On Day 21)**** %
Change in body weight (%) vs. day 0, Efficacy on Day 54 ([3]; 30 nmol/kg s.c. Q2D): −13.40**** %
Change in body weight (%) vs. ob/ob control, Maximum efficacy ([4]; 10 nmol/kg s.c. Q3D): −10.04 (On Day 25)*** %
Change in body weight (%) vs. ob/ob control, Efficacy on Day 29 ([4]; 10 nmol/kg s.c. Q3D): −6.88* %
Change in body weight (%) vs. ob/ob control, Maximum efficacy ([4]; 30 nmol/kg s.c. Q3D): −11.38 (On Day 25)**** %
Change in body weight (%) vs. ob/ob control, Efficacy on Day 29 ([4]; 30 nmol/kg s.c. Q3D): −9.92**** %
AUClast of acetaminophen (μg · min/mL), 3 hr ([5]; 10 nmol/kg s.c. single dose, acetaminophen 3 hr after dose): 266.43*** μg · min/mL
AUClast of acetaminophen (μg · min/mL), 24 hr ([5]; 10 nmol/kg s.c. single dose, acetaminophen 24 hr after dose): 2577.72 µg·min/mL
AUClast of acetaminophen (μg · min/mL), 72 hr ([5]; 10 nmol/kg s.c. single dose, acetaminophen 72 hr after dose): 3354.48 µg·min/mL
gastric emptying (in words) ([5]; 24 and 72 hours after administration): gastric emptying was restored
gastric emptying (in words) ([5]; 3 hours after administration): inhibition of gastric emptying
